Data on five compounds can be found in article PMC3407927, “Cyclisation Increases the Stability of the Sea Anemone Peptide APETx2 but Decreases Its Activity at Acid-Sensing Ion Channel 3” (Marine Drugs, 2012).

The target in one series is T1, rat ASIC3 (Rattus norvegicus, UniProt O35240).
T1 construct: expressed in transfected cells; host or cells: Xenopus laevis oocytes (cRNA injection)
T1 sequence (O35240 1-533): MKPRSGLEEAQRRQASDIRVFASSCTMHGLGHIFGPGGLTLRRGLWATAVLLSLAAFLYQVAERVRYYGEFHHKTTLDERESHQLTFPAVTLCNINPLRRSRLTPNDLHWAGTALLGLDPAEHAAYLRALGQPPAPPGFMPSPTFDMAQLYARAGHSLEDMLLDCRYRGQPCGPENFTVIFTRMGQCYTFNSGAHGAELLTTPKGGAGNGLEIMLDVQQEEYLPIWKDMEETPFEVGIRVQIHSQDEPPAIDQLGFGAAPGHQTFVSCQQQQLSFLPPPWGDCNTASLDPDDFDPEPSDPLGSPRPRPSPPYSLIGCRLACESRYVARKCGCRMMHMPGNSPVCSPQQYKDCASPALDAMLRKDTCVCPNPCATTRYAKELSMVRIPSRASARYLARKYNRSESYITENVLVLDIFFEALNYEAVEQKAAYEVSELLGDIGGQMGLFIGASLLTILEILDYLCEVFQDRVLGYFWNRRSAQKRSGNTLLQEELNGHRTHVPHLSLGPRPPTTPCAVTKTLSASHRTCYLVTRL
Briefly: Two-electrode voltage-clamp electrophysiology on Xenopus laevis oocytes expressing homomeric rat ASIC3. The class given is cell-based. The conditions noted are these: n = 6. As to the method: The biological activity of wild-type APETx2 was compared with that of truncations and cyclic analogues using voltage-clamp electrophysiology experiments on Xenopus laevis oocytes expressing homomeric rat ASIC3. […] At 1000 nM, a concentration of APETx2 that normally causes >90% inhibition of ASIC3 [18], all three cyclic analogues had little activity (~10% inhibition, n = 6) (Figure 5). Although a full concentration-effect curve was not obtained, there is an approximate 125-fold decrease in activity for all three cyclic analogues based on the concentration that causes 10% inhibition (~8 nM for wild-type APETx2 vs. 1000 nM for cyclic APETx2).
Oocytes were obtained from Xenopus laevis frogs and treated with collagenase (Sigma type I) for defolliculation. cRNA of rat ASIC3 was synthesised using an mMessage mMachine cRNA transcription kit and healthy stage V–VI oocytes injected with 4 ng rat ASIC3 cRNA (40 nL of 100 ng/μL). Oocytes were kept at 17 °C in ND96 solution (96 mM NaCl, 2 mM KCl, 1 mM CaCl2, 2 mM MgCl2, 5 mM HEPES, 5 mM pyruvic acid, 50 µg/mL gentamicin, 2.5% fetal horse serum, pH 7.4). Membrane currents were recorded 2–6 days post cRNA injection under voltage-clamp (Axoclamp 900 A amplifier, Molecular Devices, Sunnyvale, CA, USA) using two standard glass microelectrodes with resistances of 0.5–1 MΩ when filled with 3 M KCl solution. […]
On the technique in general: In two-electrode clamp one electrode senses voltage and the other passes current.

In the next series the test system is trypsin. The experiment in a line: Trypsin stability assay. The settings on record: 5 mM EDTA, pH 8.0, 20 μM peptide, 37 °C, RP-HPLC; for Trypsin stability assay: half-life / half-life at 20 μM: 1 μg trypsin in 500 μL 20 mM Tris, samples 0-48 h, each time point in triplicate. The format is in vitro ADME. As to the method:
The following protocol was modified from a previous published method: Wild-type APETx2 and cyclic analogues were diluted into 500 μL trypsin buffer (20 mM Tris, 5 mM EDTA, pH 8.0) to a final concentration of 20 μM. Reactions were started by adding 1 μg trypsin to each sample. A 35-μL sample was used for each time point and quenched by mixing with 35 μL 0.2% TFA. Protease digestion was monitored using analytical RP-HPLC. Reactions were incubated at 37 °C and samples were taken at 0, 0.5, 1, 2, 4, 12, 24 and 48 h. All time points were investigated in triplicate.

For series [1], the target named is T2, pepsin (Sus scrofa, UniProt P00791).
T2 construct: purchased Sigma Aldrich
T2 sequence (P00791 60-385): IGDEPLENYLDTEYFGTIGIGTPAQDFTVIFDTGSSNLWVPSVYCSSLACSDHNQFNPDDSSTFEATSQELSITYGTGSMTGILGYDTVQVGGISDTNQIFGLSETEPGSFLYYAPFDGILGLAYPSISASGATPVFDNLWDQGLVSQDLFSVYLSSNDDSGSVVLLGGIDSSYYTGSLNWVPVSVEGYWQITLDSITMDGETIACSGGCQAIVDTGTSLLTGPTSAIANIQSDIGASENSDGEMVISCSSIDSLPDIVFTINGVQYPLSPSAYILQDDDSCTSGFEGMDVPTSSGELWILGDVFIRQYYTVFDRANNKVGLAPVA
The experiment in a line: Simulated gastric fluid (SGF) stability assay. The format is in vitro ADME. The conditions noted are these: 20 μM peptide, RP-HPLC. How it is done:
(§1) The following protocol was modified from a published method: Wild-type APETx2 and cyclic analogues were separately diluted into 350 μL SGF (6.2 mg/mL pepsin, 30 mM NaCl, pH 1.9) to a final peptide concentration of 20 μM. Reactions were started with the addition of the peptides and the mixtures were incubated at 37 °C. 35-μL samples were taken at 0, 15, 30, 45, 60, 120, 240 and 480 min and mixed with 5 μL pepstatin A to quench the reaction (3.3 mg/mL dissolved in ethanol). Progress was monitored using RP-HPLC and each time point was investigated in triplicate.

Series [2] concerns T3, pepsin.
T3 construct: purchased Sigma Aldrich
The experiment in a line: Simulated gastric fluid (SGF) stability assay. The class given is in vitro ADME. The settings on record: simulated gastric fluid (SGF) with pepsin; SGF: 6.2 mg/mL pepsin, 30 mM NaCl, pH 1.9; 20 μM peptide; 37 °C; samples 0-480 min; RP-HPLC; each time point in triplicate. As to the method:
as §1

Series [3] can be described thus: Solution stability under lab storage conditions. The class given is physicochemical. The conditions noted are these: dissolved in water and kept at 4 °C; unpublished observations.

Where a SMILES comes first, the peptide text is derived from it. Bridges are numbered along the chain shown (N, C = ends). Where no end group is shown, it is not given here. A value given as a limit tells only on which side of the number the result lay.

As to `CC[C@H](C)[C@@H]1NC(=O)CNC(=O)[C@H](CCCCN)NC(=O)[C@H](CO)NC(=O)[C@H](CC(N)=O)NC(=O)CNC(=O)[C@@H]2CSSC[C@@H]3NC(=O)[C@H](CO)NC(=O)CNC(=O)[C@H]([C@@H](C)O)NC(=O)[C@H](Cc4ccc(O)cc4)NC(=O)CNC(=O)[C@H](CCCNC(=N)N)NC(=O)[C@H](CC(=O)O)NC(=O)[C@H]([C@@H](C)O)NC(=O)[C@@H]4CCCN4C(=O)[C@H](CSSC[C@@H](C(=O)N[C@H](C(=O)N4CCC[C@H]4C(=O)N[C@@H](C)C(=O)N[C@@H](CC(=O)O)C(=O)O)[C@@H](C)O)NC(=O)[C@H](CSSC[C@H](NC(=O)[C@H](C)N)C(=O)N[C@@H](CO)C(=O)N2)NC(=O)[C@H]([C@@H](C)O)NC(=O)CNC(=O)[C@H](CC(C)C)NC(=O)[C@H](Cc2ccccc2)NC(=O)[C@H](Cc2ccc(O)cc2)NC(=O)[C@H](CCCNC(=N)N)NC3=O)NC(=O)[C@H](CO)NC(=O)[C@@H]2CCCN2C(=O)[C@H](CCCNC(=N)N)NC(=O)[C@H](Cc2ccc(O)cc2)NC(=O)[C@H](Cc2ccccc2)NC(=O)[C@H](Cc2c[nH]c3ccccc23)NC(=O)[C@H](Cc2ccc(O)cc2)NC1=O` [APETx2_3–42] (H-ACSCGNSKGIYWFYRPSCPTDRGYTGSCRYFLGTCCTPAD-OH; disulfide 2-35, 4-28, 18-36), at rat ASIC3 (3 μM peptide, rat ASIC3 in Xenopus oocytes, read-out: inhibition of ASIC3 currents at 3 μM), the inhibition (commonly the percentage by which the read-out fell short of the control) at 3 µM is about 13%.
For “GTACSCGNSKGIYWFYRPSCPTDRGYTGSCRYFLGTCCTPAD (disulfide 4-37, 6-30, 20-38) [APETx2_wt, APETx2]”, the “Trypsin stability assay: half-life” value is 2.8 h in the series with trypsin and ~ 2.8 h with trypsin (listed as wild-type APETx2). Further, the fraction remaining (commonly the share of the starting amount still present when the sample was taken) at 48 h, 20 μM in the series with trypsin (trypsin in Tris/EDTA buffer, 48 h, 1 μg trypsin, 20 mM Tris, triplicate, read-out: peptide remaining intact after 48 h in the presence of trypsin) was about 4%. In addition, the “time within which peptide is almost totally digested in simulated gastric fluid” value on pepsin [1] (SGF 6.2 mg/mL pepsin, pH 1.9, 37 °C) is at most 20 min. Besides, the “Simulated gastric fluid stability assay: half-life” value on pepsin [1] (SGF: 6.2 mg/mL pepsin, 30 mM NaCl, pH 1.9, 37 °C, samples 0-480 min, each time point in triplicate) is given as 5 min. Moreover, the half-life – broadly, the time in which the quantity being followed falls by half – at 20 μM in the series with pepsin [2] is about 0.0833 h. At rat ASIC3 (Xenopus oocytes, clamped at −60 mV, pH 6 stimulus, ND96 with 0.1% BSA, RT, read-out: IC50 for inhibition of rASIC3 currents), the IC50 (in general, the midpoint of a concentration-inhibition curve) stood at 61 nM. Further, the “solution stability under lab storage conditions” value in series [3] was “stable for months”.
Turning to “cyclo(ACSCGNSKGIYWFYRPSCPTDRGYTGSCRYFLGTCCTPADAGASGSAGT) (disulfide 2-35, 4-28, 18-36) [cAPETx2_7RL]”, the half-life at 20 μM in the series with trypsin (trypsin in Tris/EDTA buffer) was 134 h; in the series with pepsin [2] it was 2.75 h.
Consider “cyclo(ACSCGNSKGIYWFYRPSCPTDRGYTGSCRYFLGTCCTPADGASGSAGT) (disulfide 2-35, 4-28, 18-36) [cAPETx2_6RL]”, for which the half-life at 20 μM in the series with trypsin (trypsin in Tris/EDTA buffer) was 104 h; in the series with pepsin [2], 1.9 h.
Regarding “cyclo(ACSCGNSKGIYWFYRPSCPTDRGYTGSCRYFLGTCCTPADSAGASGSAGT) (disulfide 2-35, 4-28, 18-36) [cAPETx2_8RL]”, the half-life at 20 μM was 131 h in the series on trypsin (trypsin in Tris/EDTA buffer) and 1.67 h in the series on pepsin [2].
